Experimental data as given in ChEMBL document CHEMBL1133008, “AMP deaminase inhibitors. 2. Initial discovery of a non-nucleotide transition-state inhibitor series” (J Med Chem, 2000).

Molecular target: T1, Adenosine deaminase (Bos taurus, UniProt P56658)
T1 sequence (P56658 whole entry): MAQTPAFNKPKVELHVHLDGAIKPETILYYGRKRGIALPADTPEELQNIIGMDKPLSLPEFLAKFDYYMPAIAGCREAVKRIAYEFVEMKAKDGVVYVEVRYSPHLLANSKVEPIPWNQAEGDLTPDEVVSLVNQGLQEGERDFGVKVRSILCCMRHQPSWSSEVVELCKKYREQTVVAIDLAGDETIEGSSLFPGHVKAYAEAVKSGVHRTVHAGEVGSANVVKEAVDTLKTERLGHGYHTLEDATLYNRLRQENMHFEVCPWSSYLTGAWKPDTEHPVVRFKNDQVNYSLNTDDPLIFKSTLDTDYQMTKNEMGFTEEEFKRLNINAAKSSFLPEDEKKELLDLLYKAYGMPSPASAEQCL
Experiment: Evaluated for the inhibition of calf intestinal Adenosine deaminase (ADA)

Ki	Compound
> 7.5 µM	O=C(O)C(CCCCn1cnc2c1NC=NCC2O)(c1ccccc1)c1ccccc1 (centres undefined)
3.6 µM	OCCCCCCn1cnc2c1N=CNCC2O (centres undefined)
3 µM	CCOC(=O)CCCCCn1cnc2c1NC=NCC2O (centres undefined)
> 7.5 µM	CCOC(=O)C(CCCCn1cnc2c1NC=NCC2O)c1ccccc1 (centres undefined)
> 7.5 µM	O=C(O)C(CCCCn1cnc2c1N=CNCC2O)c1ccccc1 (centres undefined)
> 7.5 µM	OCCCn1cnc2c1N=CNCC2O (centres undefined)
> 20 µM	CCCn1cnc2c1NC=NCC2O (centres undefined)
> 7.5 µM	O=C(O)C(CCCCn1cnc2c1NC=NCC2O)Cc1ccc(Br)cc1 (centres undefined)
> 7.5 µM	CCOC(=O)C(CCCCn1cnc2c1NC=NCC2O)Cc1cccc(Br)c1 (centres undefined)
17 µM	CCCCn1cnc2c1NC=NCC2O (centres undefined)
> 500 µM	O=C(O)CCCOCn1cnc2c1NC=NCC2O (centres undefined)
> 7.5 µM	CC(C)(CCCCn1cnc2c1NC=NCC2O)C(=O)O (centres undefined)
> 7.5 µM	N#CCCCn1cnc2c1N=CNCC2O (centres undefined)
28 µM	CCn1cnc2c1NC=NCC2O (centres undefined)
4.7 µM	OCCCCCn1cnc2c1NC=NCC2O (centres undefined)
> 7.5 µM	O=P(O)(O)CCCCCCn1cnc2c1N=CNCC2O (centres undefined)
> 7.5 µM	CCOC(=O)C(CCCCn1cnc2c1NC=NCC2O)c1cccc(Br)c1 (centres undefined)
14 µM	N#CCCCCn1cnc2c1N=CNCC2O (centres undefined)
> 500 µM	O=P(O)(O)CCCCCn1cnc2c1NC=NCC2O (centres undefined)
> 1000 µM	O=C(O)C(CCCCn1cnc2c1NC=NCC2O)Cc1ccccc1 (centres undefined)
> 7.5 µM	O=C(O)C(CCCCn1cnc2c1N=CNCC2O)Cc1ccccc1Br (centres undefined)

Ki	Compound
> 7.5 µM	OC1CN=CNc2c1ncn2CCCCCc1nnn[nH]1 (centres undefined)
> 7.5 µM	O=C(O)CCCCn1cnc2c1NC=NCC2O (centres undefined)
> 500 µM	COP(=O)(O)CCCCCCn1cnc2c1NC=NCC2O (centres undefined)
> 7.5 µM	OCCn1cnc2c1NC=NCC2O (centres undefined)
1 µM	N#CCCCCCCn1cnc2c1NC=NCC2O (centres undefined)
5.9 µM	NC(=O)CCCCCn1cnc2c1NC=NCC2O (centres undefined)
280 µM	O=C(O)CCCCCn1cnc2c1N=CNCC2O (centres undefined)
250 µM	O=C(O)CCCCCCn1cnc2c1N=CNCC2O (centres undefined)
> 7.5 µM	O=C(O)C(CCCCn1cnc2c1NC=NCC2O)Cc1ccc(Cl)cc1 (centres undefined)
3.5 µM	COC(=O)CCCCn1cnc2c1N=CNCC2O (centres undefined)
6.3 µM	OCCCCn1cnc2c1N=CNCC2O (centres undefined)
6 µM	OC1CN=CNc2c1ncn2Cc1ccccc1 (centres undefined)
> 7.5 µM	CCOC(=O)C(C)(CCCCn1cnc2c1NC=NCC2O)Cc1cccc(Br)c1 (centres undefined)
> 7.5 µM	O=C(O)C1(CCCCn2cnc3c2N=CNCC3O)Cc2ccccc2C1 (centres undefined)
> 7.5 µM	O=C(O)C(CCCCn1cnc2c1N=CNCC2O)c1cccc(Br)c1 (centres undefined)
> 7.5 µM	O=C(O)C(CCCCn1cnc2c1NC=NCC2O)Cc1cccc(Br)c1 (centres undefined)
> 7.5 µM	O=C(O)CCCCCCCn1cnc2c1NC=NCC2O (centres undefined)
120 µM	CC(C)CC(CCCCn1cnc2c1NC=NCC2O)(CC(C)C)C(=O)O (centres undefined)
> 7.5 µM	O=C(O)C(CCCCn1cnc2c1N=CNCC2O)Cc1cccc(Cl)c1 (centres undefined)
> 7.5 µM	CC(CCCCn1cnc2c1N=CNCC2O)(Cc1cccc(Br)c1)C(=O)O (stereo in doubt; 7v)
> 7.5 µM	CC(CCCCn1cnc2c1N=CNCC2O)(Cc1cccc(Br)c1)C(=O)O (stereo in doubt; 7w)

Compound	Ki
CCCCCCCCn1cnc2c1N=CNCC2O (centres undefined)	0.45 µM
COC(=O)CCCCCCCn1cnc2c1N=CNCC2O (centres undefined)	0.95 µM
